{
  "source": "patent US10487054B2",
  "about": "“Therapeutic compounds” (REGENTS OF THE UNIVERSITY OF MINNESOTA, priority 2017, dated 2019)",
  "key": {"[1]": {"test_system": "JB6 P+ mouse epidermal skin cells", "assay": "MTS assay for cytotoxicity", "assay_type": "cell-based", "details": "24 or 48 h, concentrations less than 10 μM", "procedure": "(§1) Cells (1×10^4 cells/well) were seeded into 96-well plates. After an overnight incubation, cells were treated with different concentrations of compound 1 and incubated for 24 or 48 h. Then 20 μL of the CellTiter 96 Aqueous One Solution (Promega, Madison, Wis.) were added to each well and cells were incubated for an additional 1 h at 37° C. Absorbance was measured at an optical density of 492 and 690 nm using the Thermo Multiskan plate-reader (Thermo Fisher Scientific, Waltham, Mass.).\n(§2) Cells (1×10^4 cells/well) were seeded into 96-well plates for determining cytotoxicity. After an overnight incubation, cells were treated with different concentrations of compound 1 and incubated for 24 or 48 h. Then 20 μL of the CellTiter 96 Aqueous One Solution (Promega Corporation, Madison, Wis.) were added to each well and cells were incubated for an additional 1 h at 37° C. Absorbance was measured at an optical density of 492 and 690 nm using the Thermo Multiskan plate-reader (Thermo Fisher Scientific, Waltham, Mass.)."}, "[2]": {"test_system": "normal human dermal fibroblasts (NHDF)", "assay": "MTS assay for cytotoxicity", "assay_type": "cell-based", "details": "24 or 48 h, concentrations less than 10 μM", "procedure": "as §1, §2"}, "[3]": {"assay": "Absorbance scan by spectrophotometer", "assay_type": "physicochemical", "procedure": "Absorbance wavelengths of compound 1 were scanned using a Beckman DU®800 spectrophotometer.\nIn order to confirm whether compound 1 absorbs at UVA or UVB wavelengths, its ability to absorb SUV light between […] was examined. […] In addition, an anchorage-independent growth assay was performed to assess the effect of compound 1 on cell transformation. […] Similarly, cell proliferation was determined by a crystal violet staining assay."}, "JB6 P+ cells": {"test_system": "JB6 P+ cells", "assay": "Western blot of SUV-induced TOPK downstream signaling", "assay_type": "cell-based, mouse", "procedure": "The cells were cultured, treated for 4 h with different concentrations of compound 1 and then exposed to SUV (60 kJ UVA/m^2 and 2.9 kJ UVB/m^2), followed by an additional 15-minute incubation. Cells were harvested and the levels of phosphorylated and total proteins were determined by Western blot analysis with specific antibodies as indicated. […] The cells were cultured and treated with different concentrations of compound 1 for 24 h. Cells were harvested and the levels of phosphorylated and total proteins were determined by Western blot analysis with specific antibodies as indicated. […] For the luciferase assay, JB6 P+ cells stably transfected with an AP-1 luciferase reporter plasmid were cultured. […] Luciferase activity was measured and AP-1 activity is expressed relative to control cells without SUV treatment. […] Luciferase and 3-galactosidase activities were measured using reagents included in the reporter assay system (right). […] Significant differences were evaluated using one-way ANOVA and the asterisks (*) indicate a significant effect (*, p<0.05; **, p<0.001; ***, p<0.0001). […]\nHaCaT or JB6 P+ cells (1×10^6) were cultured in 10-cm dishes for 24 h and then the medium was replaced with 0.1% FBS medium for 24 h. […] Protein concentration in cell lysates was determined using a protein assay kit (Bio-Rad Laboratories, Hercules, Calif.). […]"}, "A431 cells": {"test_system": "A431 cells", "assay": "Western blot of TOPK downstream signaling", "assay_type": "cell-based, human", "procedure": "(§3) The cells were cultured, treated for 4 h with different concentrations of compound 1 and then exposed to SUV (60 kJ UVA/m^2 and 2.9 kJ UVB/m^2), followed by an additional 15-minute incubation. Cells were harvested and the levels of phosphorylated and total proteins were determined by Western blot analysis with specific antibodies as indicated. […] The cells were cultured and treated with different concentrations of compound 1 for 24 h. Cells were harvested and the levels of phosphorylated and total proteins were determined by Western blot analysis with specific antibodies as indicated. […] For the luciferase assay, JB6 P+ cells stably transfected with an AP-1 luciferase reporter plasmid were cultured. After starvation for 24 h, cells were treated for 1 h with compound 1 (0, 1.25, 2.5, or 5 μM). Cells were then exposed to SUV (60 kJ UVA/m^2 and 2.9 kJ UVB/m^2) and harvested 3 h later. Luciferase activity was measured and AP-1 activity is expressed relative to control cells without SUV treatment. […] Knockdown of TOPK in A431 cell line (left). Stable control or TOPK knockdown cells were co-transfected with 100 ng of the AP-1 luciferase reporter plasmid and 50 ng of internal control […] plasmid. Cells were transfected using iMFectin poly DNA transfection reagent (GenDEPOT) according to the manufacturer's instructions. After 12 h of transfection, cells were incubated with the different concentrations of compound 1 for another 24 h. Luciferase and […] activities were measured using reagents included in the reporter assay system (right). Data are shown as mean values±S.D obtained from triplicate experiments. Significant differences were evaluated using one-way ANOVA and the asterisks (*) indicate a significant effect (*, p<0.05; **, p<0.001; ***, p<0.0001).\n(§4) HaCaT or JB6 P+ cells (1×10^6) were cultured in 10-cm dishes for 24 h and then the medium was replaced with 0.1% FBS medium for 24 h. Cells were then treated with different concentrations of compound 1 for 4 h followed by exposure to SUV (60 kJ UVA/m^2 and 2.9 kJ UVB/m^2). After SUV, cells were incubated for 15 min at 37° C. in a 5% CO2 humidified incubator. SCC12 and A431 cells (1.5×10^6) were cultured in 10-cm dishes overnight and then starved for 24 h. Cells were then treated with different concentrations of compound 1 for an additional 24 h. Protein concentration in cell lysates was determined using a protein assay kit (Bio-Rad Laboratories, Hercules, Calif.). Equal amounts of proteins were resolved by SDS-PAGE and then transferred onto polyvinylidene difluoride (PVDF) membranes (EMD Millipore Corp., Billerica, Mass.) and membranes were blocked with 5% nonfat milk for 1 h at room temperature. […]"}, "SCC12 cells": {"test_system": "SCC12 cells", "assay": "Western blot of TOPK downstream signaling", "assay_type": "cell-based, human", "procedure": "as §3, §4"}, "[4]": {"test_system": "AP-1 activity in JB6 P+ cells", "assay": "AP-1 luciferase reporter assay, SUV-induced", "assay_type": "cell-based, mouse", "details": "JB6 P+ cells, 1.25, 2.5 or 5 μM, dose-dependently", "procedure": "The cells were cultured, treated for 4 h with different concentrations of compound 1 and then exposed to SUV (60 kJ UVA/m^2 and 2.9 kJ UVB/m^2), followed by an additional 15-minute incubation. Cells were harvested and the levels of phosphorylated and total proteins were determined by Western blot analysis with specific antibodies as indicated. […] The cells were cultured and treated with different concentrations of compound 1 for 24 h. Cells were harvested and the levels of phosphorylated and total proteins were determined by Western blot analysis with specific antibodies as indicated. […] For the luciferase assay, JB6 P+ cells stably transfected with an AP-1 luciferase reporter plasmid were cultured. After starvation for 24 h, cells were treated for 1 h with compound 1 (0, 1.25, 2.5, or 5 μM). Cells were then exposed to SUV (60 kJ UVA/m^2 and 2.9 kJ UVB/m^2) and harvested 3 h later. Luciferase activity was measured and AP-1 activity is expressed relative to control cells without SUV treatment. […] Knockdown of TOPK in A431 cell line (left). […] Luciferase and 3-galactosidase activities were measured using reagents included in the reporter assay system (right). […] Significant differences were evaluated using one-way ANOVA and the asterisks (*) indicate a significant effect (*, p<0.05; **, p<0.001; ***, p<0.0001). […]"}},
  "data": [
    {"smiles": "O=C1Nc2ccc(C34CC5CC(CC(C5)C3)C4)cc2C1=NO", "note": "[compound 1, 5-(adamantan-1-yl)-3-(hydroxyimino)indolin-2-one]", "values": [
      {"measurement": "cytotoxicity", "setting": "[1]", "result": "no cytotoxicity"},
      {"measurement": "cytotoxicity", "setting": "[2]", "result": "no cytotoxicity"},
      {"measurement": "absorbance of UVA or UVB", "setting": "[3]", "result": "did not show significant absorbance of UVA or UVB"},
      {"measurement": "peak absorption", "setting": "[3]; scanned between 250 and 320 nm", "result": 259, "unit": "nm"},
      {"measurement": "wavelength range of main light absorption", "setting": "[3]; scanned between 250 and 320 nm", "result": "250-275 nm"},
      {"measurement": "phosphorylated c-Jun protein levels", "setting": "JB6 P+ cells; JB6 P+ cells exposed to SUV", "result": "significantly suppressed"},
      {"measurement": "phosphorylation of ERK1/2, p38, and JNKs", "setting": "JB6 P+ cells; JB6 P+ cells, 4 h treatment then SUV (60 kJ UVA/m2 and 2.9 kJ UVB/m2)", "result": "markedly suppressed"},
      {"measurement": "phosphorylated c-Jun protein levels", "setting": "A431 cells", "result": "blocked dose-dependently"},
      {"measurement": "phosphorylation of ERK1/2, p38, and JNKs", "setting": "A431 cells; 24 h, dose-dependently", "result": "blocked"},
      {"measurement": "phosphorylated c-Jun protein levels", "setting": "SCC12 cells", "result": "blocked dose-dependently"},
      {"measurement": "phosphorylation of ERK1/2, p38, and JNKs", "setting": "SCC12 cells; 24 h, dose-dependently", "result": "blocked"},
      {"measurement": "SUV-induced transactivation of AP-1", "setting": "[4]", "result": "inhibited"}
    ]}
  ]
}
